Experimental data as given in US20240132524A1, “SMALL MOLECULES FOR BORON NEUTRON CAPTURE THERAPY” (Aviko Radiopharmaceuticals, LLC, priority 2022, published 2024).

System: U87-MG (glioblastoma)
Assay: Cell uptake assay in U87-MG cells
Assay type: cell-based, human
Settings: 0.1 mM, 1 h
Procedure: (§1) • 1.1.1 15 mL of cell culture medium was placed into a T225 flask. • 1.1.2 The flask was placed in a humidified 37° C., 5% CO2 incubator for 15 minutes to allow medium to equilibrate to the proper pH and temperature. • 1.1.3 The vial was removed from liquid nitrogen and thawed rapidly by placing at 37° C. in a water bath with gentle agitation for 1-2 minutes and then decontaminated by wiping with 70% ethanol before opening in a Class II biological safety cabinet. • 1.1.4 The vial contents were transferred dropwise into 10 mL of cell culture medium in a sterile 15 mL conical tube. • 1.1.5 The cells were centrifuged at 1,300 rpm for 5 minutes. • 1.1.6 The supernatant was aspirated and re-suspended the cells and transferred the cells into T225 flask containing cell culture medium.
(§2) • 1.2.1 Culture medium were renewed every 2-3 days. • 1.2.2 Keep the flask in a humidified 37° C., 5% CO2 incubator
Cells were harvested and diluted in culture medium to the designated concentration. Then the cells were cultured in T25 flasks, one T25 flask for one sample. 2.2 Formulation of test compounds • 2.2.1 L-Boronophenylalanine (L-BPA, 4-boron-L-phenylalanine, Purity: 95%, Chemical formula: C9H12BNO4, MW: 209.01, CAS: 76410-58-7) and fructose were dissolved in PBS at a molar ratio of 1:5, and then a 1.27 M ratio of 1 N NaOH is added. The mixture was stirred until L-BPA is completely dissolved, and the pH value was titrated to 7.2-7.4 with 1N HCl. • 2.2.2 For test compounds other than BPA, stock solutions were prepared of each compound in DMSO or fructose formulation at a concentration of 20 mM (such that final % DMSO in the cellular assay medium=0.5%) […]

Structure (SMILES) | Cell uptake, Mean (ng/10^6 cell), U87-MG [ng/10^6 cell]
N[C@@H](Cc1cccc(B(O)O)c1O)C(=O)O [Comparator Compound B, reference compound] | 380
N[C@@H](Cc1cccc(B(O)O)c1O)C(=O)O [Compound 1, (S)-2-amino-3-(3-borono-2-hydroxyphenyl)propanoic acid] | 175
N[C@@H](Cc1c(F)ccc(B(O)O)c1O)C(=O)O [Compound 3, (2S)-2-amino-3-[3-(dihydroxyboranyl)-6-fluoro-2-hydroxyphenyl]propanoic acid] | 307

Same assay, conditions: 0.1 mM, 4 h

Structure (SMILES) | Cell uptake, Mean (ng/10^6 cell), U87-MG [ng/10^6 cell]
N[C@@H](Cc1cccc(B(O)O)c1O)C(=O)O [Comparator Compound B, reference compound] | 519
N[C@@H](Cc1cccc(B(O)O)c1O)C(=O)O [Compound 1, (S)-2-amino-3-(3-borono-2-hydroxyphenyl)propanoic acid] | 713
N[C@@H](Cc1c(F)ccc(B(O)O)c1O)C(=O)O [Compound 3, (2S)-2-amino-3-[3-(dihydroxyboranyl)-6-fluoro-2-hydroxyphenyl]propanoic acid] | 621

Same assay, conditions: 0.1 mM, 24 h

Structure (SMILES) | Cell uptake, Mean (ng/10^6 cell), U87-MG [ng/10^6 cell]
N[C@@H](Cc1cccc(B(O)O)c1O)C(=O)O [Comparator Compound B, reference compound] | 250
N[C@@H](Cc1cccc(B(O)O)c1O)C(=O)O [Compound 1, (S)-2-amino-3-(3-borono-2-hydroxyphenyl)propanoic acid] | 1315
N[C@@H](Cc1c(F)ccc(B(O)O)c1O)C(=O)O [Compound 3, (2S)-2-amino-3-[3-(dihydroxyboranyl)-6-fluoro-2-hydroxyphenyl]propanoic acid] | 555

System: NIH-3T3 (normal cell line)
Assay: Cell uptake assay in NIH-3T3 cells
Assay type: cell-based, mouse
Settings: 0.1 mM, 1 h
Procedure: as §1, §2
(§3) Cells were harvested and diluted in culture medium to the designated concentration. Then the cells were cultured in T25 flasks, one T25 flask for one sample. 2.2 Formulation of test compounds • 2.2.1 L-Boronophenylalanine (L-BPA, 4-boron-L-phenylalanine, Purity: 95%, Chemical formula: C9H12BNO4, MW: 209.01, CAS: 76410-58-7) and fructose were dissolved in PBS at a molar ratio of 1:5, and then a 1.27 M ratio of 1 N NaOH is added. The mixture was stirred until L-BPA is completely dissolved, and the pH value was titrated to 7.2-7.4 with 1N HCl. • 2.2.2 For test compounds other than BPA, stock solutions were prepared of each compound in DMSO or fructose formulation at a concentration of 20 mM (such that final % DMSO in the cellular assay medium=0.5%)
(§4) • 2.3.1 The cells were seeded overnight (12-18 hours) to allow the cells to adhere well. • 2.3.2 The stock solution of each compound was added to each T25 flask such that the final concentration for each compound is 100 uM (0.1 mM). • 2.3.3 The flasks were placed in a 37° C., […] for 1 hour, 4 hour, and 24 hours, the cells were collected by using 0.25% Trypsin with 0.53 mM EDTA. 2.3.5 Centrifuged at 1,300 rpm for 5 min to collect cell pellets.

Structure (SMILES) | Cell uptake, Mean (ng/10^6 cell), NIH-3T3 [ng/10^6 cell]
N[C@@H](Cc1cccc(B(O)O)c1O)C(=O)O [Comparator Compound B, reference compound] | 186
N[C@@H](Cc1cccc(B(O)O)c1O)C(=O)O [Compound 1, (S)-2-amino-3-(3-borono-2-hydroxyphenyl)propanoic acid] | 109
N[C@@H](Cc1c(F)ccc(B(O)O)c1O)C(=O)O [Compound 3, (2S)-2-amino-3-[3-(dihydroxyboranyl)-6-fluoro-2-hydroxyphenyl]propanoic acid] | 105

Same assay, conditions: 0.1 mM, 4 h

Structure (SMILES) | Cell uptake, Mean (ng/10^6 cell), NIH-3T3 [ng/10^6 cell]
N[C@@H](Cc1cccc(B(O)O)c1O)C(=O)O [Comparator Compound B, reference compound] | 122
N[C@@H](Cc1cccc(B(O)O)c1O)C(=O)O [Compound 1, (S)-2-amino-3-(3-borono-2-hydroxyphenyl)propanoic acid] | 194
N[C@@H](Cc1c(F)ccc(B(O)O)c1O)C(=O)O [Compound 3, (2S)-2-amino-3-[3-(dihydroxyboranyl)-6-fluoro-2-hydroxyphenyl]propanoic acid] | 196

Same assay, conditions: 0.1 mM, 24 h

Structure (SMILES) | Cell uptake, Mean (ng/10^6 cell), NIH-3T3 [ng/10^6 cell]
N[C@@H](Cc1cccc(B(O)O)c1O)C(=O)O [Comparator Compound B, reference compound] | 217
N[C@@H](Cc1cccc(B(O)O)c1O)C(=O)O [Compound 1, (S)-2-amino-3-(3-borono-2-hydroxyphenyl)propanoic acid] | 122
N[C@@H](Cc1c(F)ccc(B(O)O)c1O)C(=O)O [Compound 3, (2S)-2-amino-3-[3-(dihydroxyboranyl)-6-fluoro-2-hydroxyphenyl]propanoic acid] | 182

System: B16F10 (melanoma)
Assay: Cell uptake assay in B16F10 cells
Assay type: cell-based, mouse
Settings: 0.1 mM, 1 h
Procedure: as §1, §2, §3, §4

Structure (SMILES) | Cell uptake, Mean (ng/10^6 cell), B16F10 [ng/10^6 cell]
N[C@@H](Cc1cccc(B(O)O)c1O)C(=O)O [Comparator Compound B, reference compound] | 131
N[C@@H](Cc1cccc(B(O)O)c1O)C(=O)O [Compound 1, (S)-2-amino-3-(3-borono-2-hydroxyphenyl)propanoic acid] | 158
N[C@@H](Cc1c(F)ccc(B(O)O)c1O)C(=O)O [Compound 3, (2S)-2-amino-3-[3-(dihydroxyboranyl)-6-fluoro-2-hydroxyphenyl]propanoic acid] | 66.5

Same assay, conditions: 0.1 mM, 4 h

Structure (SMILES) | Cell uptake, Mean (ng/10^6 cell), B16F10 [ng/10^6 cell]
N[C@@H](Cc1cccc(B(O)O)c1O)C(=O)O [Comparator Compound B, reference compound] | 248
N[C@@H](Cc1cccc(B(O)O)c1O)C(=O)O [Compound 1, (S)-2-amino-3-(3-borono-2-hydroxyphenyl)propanoic acid] | 282
N[C@@H](Cc1c(F)ccc(B(O)O)c1O)C(=O)O [Compound 3, (2S)-2-amino-3-[3-(dihydroxyboranyl)-6-fluoro-2-hydroxyphenyl]propanoic acid] | 255

Same assay, conditions: 0.1 mM, 24 h

Structure (SMILES) | Cell uptake, Mean (ng/10^6 cell), B16F10 [ng/10^6 cell]
N[C@@H](Cc1cccc(B(O)O)c1O)C(=O)O [Comparator Compound B, reference compound] | 662
N[C@@H](Cc1cccc(B(O)O)c1O)C(=O)O [Compound 1, (S)-2-amino-3-(3-borono-2-hydroxyphenyl)propanoic acid] | 669
N[C@@H](Cc1c(F)ccc(B(O)O)c1O)C(=O)O [Compound 3, (2S)-2-amino-3-[3-(dihydroxyboranyl)-6-fluoro-2-hydroxyphenyl]propanoic acid] | 196

System: SAS, B16F10, U87-MG relative to NIH-3T3
Assay: Cell uptake assays, cancer cell lines compared with normal cell line
Assay type: cell-based, human
Settings: SAS, B16F10, U87-MG relative to NIH-3T3
Procedure: as §1, §2
Cells were harvested and diluted in culture medium to the designated concentration. Then the cells were cultured in T25 flasks, one T25 flask for one sample. 2.2 Formulation of test compounds • 2.2.1 L-Boronophenylalanine (L-BPA, 4-boron-L-phenylalanine, Purity: 95%, Chemical formula: C9H12BNO4, MW: 209.01, CAS: 76410-58-7) and fructose were dissolved in PBS at a molar ratio of 1:5, and then a 1.27 M ratio of 1 N NaOH is added. […]

Structure (SMILES) | Selective uptake by cancer cell lines relative to normal cell line
N[C@@H](Cc1cccc(B(O)O)c1O)C(=O)O [Compound 1, (S)-2-amino-3-(3-borono-2-hydroxyphenyl)propanoic acid] | selective partitioning into cancer cells relative to normal cells

Same assay, conditions: cancer cells

Structure (SMILES) | Uptake in cancer cells relative to Comparator Compounds A and B
N[C@@H](Cc1cccc(B(O)O)c1O)C(=O)O [Compound 1, (S)-2-amino-3-(3-borono-2-hydroxyphenyl)propanoic acid] | increased uptake in cancer cells relative to Comparator Compounds A and B

System: SAS (head & neck cancer)
Assay: Cell uptake assay in SAS cells
Assay type: cell-based, human
Settings: 0.1 mM, 1 h
Procedure: as §1, §2, §3, §4

Structure (SMILES) | Cell uptake, Mean (ng/10^6 cell), SAS [ng/10^6 cell]
N[C@@H](Cc1cccc(B(O)O)c1O)C(=O)O [Comparator Compound B, reference compound] | 510
N[C@@H](Cc1cccc(B(O)O)c1O)C(=O)O [Compound 1, (S)-2-amino-3-(3-borono-2-hydroxyphenyl)propanoic acid] | 863
N[C@@H](Cc1c(F)ccc(B(O)O)c1O)C(=O)O [Compound 3, (2S)-2-amino-3-[3-(dihydroxyboranyl)-6-fluoro-2-hydroxyphenyl]propanoic acid] | 1320

Same assay, conditions: 0.1 mM, 4 h

Structure (SMILES) | Cell uptake, Mean (ng/10^6 cell), SAS [ng/10^6 cell]
N[C@@H](Cc1cccc(B(O)O)c1O)C(=O)O [Comparator Compound B, reference compound] | 487
N[C@@H](Cc1cccc(B(O)O)c1O)C(=O)O [Compound 1, (S)-2-amino-3-(3-borono-2-hydroxyphenyl)propanoic acid] | 1400
N[C@@H](Cc1c(F)ccc(B(O)O)c1O)C(=O)O [Compound 3, (2S)-2-amino-3-[3-(dihydroxyboranyl)-6-fluoro-2-hydroxyphenyl]propanoic acid] | 1295

Same assay, conditions: 0.1 mM, 24 h

Structure (SMILES) | Cell uptake, Mean (ng/10^6 cell), SAS [ng/10^6 cell]
N[C@@H](Cc1cccc(B(O)O)c1O)C(=O)O [Comparator Compound B, reference compound] | 1465
N[C@@H](Cc1cccc(B(O)O)c1O)C(=O)O [Compound 1, (S)-2-amino-3-(3-borono-2-hydroxyphenyl)propanoic acid] | 2625
N[C@@H](Cc1c(F)ccc(B(O)O)c1O)C(=O)O [Compound 3, (2S)-2-amino-3-[3-(dihydroxyboranyl)-6-fluoro-2-hydroxyphenyl]propanoic acid] | 1580
